The source of these data is ChEMBL document CHEMBL4138236, “Trisubstituted barbiturates and thiobarbiturates: Synthesis and biological evaluation as xanthine oxidase inhibitors, antioxidants, antibacterial and anti-proliferative agents” (Eur J Med Chem, 2018).

The test system of one data set is Pseudomonas aeruginosa. In words: Antibacterial activity against Pseudomonas aeruginosa ATCC 27853 after 24 hrs by broth microdilution method. In kind it is functional. Conditions: ATCC 27853, 24 h. A general note: In broth dilution the organism is exposed to a series of concentrations in liquid medium.
The subject of a further data set is Escherichia coli. Put plainly: Antibacterial activity against Escherichia coli ATCC 25922 after 24 hrs by broth microdilution method. In kind it is functional. Particulars: ATCC 25922, 24 h.
A further data set relates to MCF7. In words: Antiproliferative activity against human MCF7 cells at 30 uM after 72 hrs by MTT assay relative to control. In kind it is functional.
For the next data set, the system named is Bacillus cereus. Put plainly: Antibacterial activity against Bacillus cereus ATCC 1178 after 24 hrs by broth microdilution method. In kind it is functional. Conditions: ATCC 1178, 24 h.
Another data set relates to Salmonella typhimurium. In words: Antibacterial activity against Salmonella typhimurium ATCC 13311 after 24 hrs by broth microdilution method. In kind it is functional, Salmonella enterica subsp. enterica serovar Typhimurium. Conditions: Salmonella enterica, ATCC 13311, 24 h.
The subject of a further data set is Staphylococcus aureus. Put plainly: Antibacterial activity against Staphylococcus aureus ATCC 25923 after 24 hrs by broth microdilution method. In kind it is functional. Conditions: ATCC 25923, 24 h.
For a further data set, the system named is Acinetobacter baumannii. In words: Antibacterial activity against Acinetobacter baumannii LMG 1025 after 24 hrs by broth microdilution method. In kind it is functional. Conditions: LMG 1025, 24 h.
Data set [1] can be described thus: Antioxidant activity assessed as DPPH radical scavenging activity at 30 uM after 60 mins by spectrophotometric method relative to control. In kind it is functional. (In general: DPPH is a stable violet radical that fades when it is reduced.)
Data set [2] is described as follows: Antioxidant activity assessed as DPPH radical scavenging activity at 30 uM after 20 mins by spectrophotometric method relative to control. In kind it is functional.
Another data set concerns NHDF. Put plainly: Antiproliferative activity against NHDF at 30 uM after 72 hrs by MTT assay relative to control. Particulars: human. In kind it is cell-based.
The test system of a further data set is Klebsiella pneumoniae. In words: Antibacterial activity against Klebsiella pneumoniae ATCC 13883 after 24 hrs by broth microdilution method. In kind it is functional. Conditions: ATCC 13883, 24 h.

Molecules are shown by their SMILES.

For `O=C1NC(=O)C(=Cc2ccccc2[N+](=O)[O-])C(=O)N1`, the MIC in the data set with Pseudomonas aeruginosa, against Escherichia coli, against Bacillus cereus, against Salmonella typhimurium, against Staphylococcus aureus and in the data set with Acinetobacter baumannii was above 200 µM each time. Further, in the data set on Klebsiella pneumoniae, the MIC – broadly, the least concentration at which growth counts as inhibited – is above 200 µM. Further, the Activity is 58.88% in the data set with MCF7, -0.78% in data set [1], -0.9% in [2] and 72.88% with NHDF.

Turning to `CC(NNc1ccc([N+](=O)[O-])cc1[N+](=O)[O-])=C1C(=O)N(C)C(=O)N(C)C1=O`, the MIC against Pseudomonas aeruginosa, with Escherichia coli, against Bacillus cereus, against Salmonella typhimurium, against Staphylococcus aureus and against Acinetobacter baumannii was above 200 µM in each case. The MIC in the data set with Klebsiella pneumoniae was above 200 µM. In addition, the Activity in the data set with MCF7 was found to be 69.95%; in data set [1], 26.7%; in data set [2], 28%; with NHDF, 73.63%.

With `O=C1NC(=S)NC(=O)C1=CNc1ccccc1C(=O)O`, the MIC in the data set with Pseudomonas aeruginosa, against Escherichia coli, in the data set with Bacillus cereus, against Salmonella typhimurium, against Staphylococcus aureus and in the data set on Acinetobacter baumannii was above 200 µM throughout. Moreover, the MIC in the data set on Klebsiella pneumoniae was above 200 µM. In addition, the Activity with MCF7 is 42.53%; in data set [1], -0.57%; in [2], -0.56%; in the data set on NHDF, 79.11%.

In the case of `O=C1NC(=S)NC(=O)C1=CNc1cc([N+](=O)[O-])ccc1Cl`, the minimal inhibitory concentration (MIC) in the data set on Pseudomonas aeruginosa, in the data set on Escherichia coli, in the data set with Bacillus cereus, with Salmonella typhimurium, with Staphylococcus aureus and against Acinetobacter baumannii was above 200 µM throughout. Also, in the data set with Klebsiella pneumoniae, the minimal inhibitory concentration (MIC) was above 200 µM. The Activity in the data set on MCF7 was 63.7%; in data set [1] it was -3.68%; in [2], -4.31%; in the data set with NHDF, 70.28%.

Regarding `CN1C(=O)C(=CNC(N)=O)C(=O)N(C)C1=O`, the MIC in the data set with Pseudomonas aeruginosa, against Escherichia coli, against Bacillus cereus, against Salmonella typhimurium, against Staphylococcus aureus and with Acinetobacter baumannii was above 200 µM throughout. In the data set on Klebsiella pneumoniae, this molecule showed an MIC above 200 µM. In addition, the Activity in the data set on MCF7 came to 97.13%; in [1] it was 2.91%; in data set [2] it was 2.1%; with NHDF it was 86.84%.

Regarding `NC(=O)NC=C1C(=O)NC(=O)NC1=O`, the minimum inhibitory concentration (MIC) in the data set on Pseudomonas aeruginosa, in the data set with Escherichia coli, in the data set on Bacillus cereus, with Salmonella typhimurium, in the data set with Staphylococcus aureus and in the data set on Acinetobacter baumannii was above 200 µM in each case. In addition, in the data set with Klebsiella pneumoniae, the minimal inhibitory concentration (MIC) is above 200 µM. For the same molecule, the Activity in the data set on MCF7 is 55.71%; in [1] it was -5.32%; in data set [2] it was -5.19%; in the data set on NHDF it was 78.89%.

As for `O=C1NC(=S)NC(=O)C1=CNc1ccccc1[N+](=O)[O-]`, the MIC with Pseudomonas aeruginosa, in the data set on Escherichia coli, against Bacillus cereus, with Salmonella typhimurium, against Staphylococcus aureus and in the data set with Acinetobacter baumannii was above 200 µM each time. In addition, in the data set on Klebsiella pneumoniae, the MIC is above 200 µM. For the same molecule, the Activity was 80.23% with MCF7, -11.8% in data set [1], -12.5% in data set [2] and 78.75% in the data set on NHDF.

With `COc1ccc(CC2C(=O)NC(=O)NC2=O)cc1`, the MIC with Pseudomonas aeruginosa, in the data set on Escherichia coli, in the data set with Bacillus cereus, against Salmonella typhimurium, against Staphylococcus aureus and against Acinetobacter baumannii was above 200 µM throughout. Further, the MIC in the data set on Klebsiella pneumoniae is above 200 µM. The Activity with MCF7 worked out at 73.12%; in data set [1], 14%; in [2] it was 10.4%; in the data set on NHDF, 60.77%.

In the case of `NC(=S)NC=C1C(=O)N(c2ccccc2)C(=S)N(c2ccccc2)C1=O`, the minimal inhibitory concentration (MIC) with Pseudomonas aeruginosa, against Escherichia coli, in the data set on Bacillus cereus, against Salmonella typhimurium, with Staphylococcus aureus and with Acinetobacter baumannii was above 200 µM each time. Further, the minimal inhibitory concentration (MIC) against Klebsiella pneumoniae is above 200 µM. The Activity in the data set on MCF7 worked out at 90.04%; in [1], 32%; in data set [2] it was 23.1%; with NHDF, 95.17%.

Turning to `Oc1ncnc2[nH]ncc12` [ALLOPURINOL], the Activity in data set [1] is -5.41%; in data set [2], -6.02%.

In the case of `NC(=O)NC=C1C(=O)NC(=S)NC1=O`, the minimal inhibitory concentration (MIC) with Pseudomonas aeruginosa, in the data set with Escherichia coli, in the data set with Bacillus cereus, against Salmonella typhimurium, with Staphylococcus aureus and with Acinetobacter baumannii was above 200 µM in each case. The minimal inhibitory concentration (MIC) against Klebsiella pneumoniae was above 200 µM. In addition, the Activity was 104.66% with MCF7, 5.6% in data set [1], 5.26% in [2] and 74.57% with NHDF.

For `CC(=O)C1C(=O)N(c2ccccc2)C(=S)N(c2ccccc2)C1=O`, the MIC in the data set with Pseudomonas aeruginosa, against Escherichia coli, against Bacillus cereus, in the data set with Salmonella typhimurium, against Staphylococcus aureus and in the data set with Acinetobacter baumannii was above 200 µM in each case. Further, in the data set on Klebsiella pneumoniae, the MIC is above 200 µM. Moreover, the Activity is 75.32% in the data set with MCF7, -7.43% in data set [1], -8.55% in [2] and 89.63% in the data set on NHDF.

With `N#CC(c1ccc(Br)cc1)c1c([O-])[nH]c(=S)[nH]c1=O.[Na+]` (stereo not given), the MIC in the data set on Pseudomonas aeruginosa, with Escherichia coli, against Bacillus cereus, against Salmonella typhimurium, with Staphylococcus aureus and against Acinetobacter baumannii was above 200 µM each time. Besides, in the data set with Klebsiella pneumoniae, the MIC is above 200 µM. The Activity is 90.08% in the data set on MCF7, -8.33% in data set [1], -9.22% in [2] and 89.93% in the data set with NHDF.

For the molecule `CN1C(=O)C(=Cc2ccccc2[N+](=O)[O-])C(=O)N(C)C1=O`, the minimum inhibitory concentration (MIC) in the data set on Pseudomonas aeruginosa, against Escherichia coli, with Bacillus cereus, against Salmonella typhimurium, in the data set on Staphylococcus aureus and against Acinetobacter baumannii was above 200 µM in each case. The same molecule returned an MIC against Klebsiella pneumoniae above 200 µM. In addition, the Activity in the data set on MCF7 is 54.64%; in data set [1], -1.77%; in data set [2], -0.8%; in the data set with NHDF, 79.11%.

Take `CN1C(=O)C(=CNc2ccccc2C(=O)O)C(=O)N(C)C1=O`: the MIC against Pseudomonas aeruginosa, with Escherichia coli, with Bacillus cereus, against Salmonella typhimurium, in the data set with Staphylococcus aureus and in the data set on Acinetobacter baumannii was above 200 µM in each case. The same molecule gave an MIC against Klebsiella pneumoniae above 200 µM. The Activity with MCF7 stood at 50.34%; in [1], 1.98%; in [2], 3.37%; in the data set on NHDF, 71.19%.

In the case of `NC(S)=NC=C1C(=O)NC(=O)NC1=O`, the MIC against Pseudomonas aeruginosa, against Escherichia coli, in the data set with Bacillus cereus, against Salmonella typhimurium, in the data set on Staphylococcus aureus and with Acinetobacter baumannii was above 200 µM throughout. In addition, the MIC against Klebsiella pneumoniae is above 200 µM. In addition, the Activity was found to be 71.09% in the data set with MCF7, 16.6% in data set [1], 6.73% in data set [2] and 78.05% in the data set with NHDF.

Turning to `Nc1ccccc1NC=C1C(=O)NC(=S)NC1=O`, the minimum inhibitory concentration (MIC) in the data set on Pseudomonas aeruginosa, against Escherichia coli, against Bacillus cereus, against Salmonella typhimurium, in the data set on Staphylococcus aureus and with Acinetobacter baumannii was above 200 µM in each case. Also, the minimal inhibitory concentration (MIC) in the data set on Klebsiella pneumoniae is above 200 µM. Also, the Activity in the data set with MCF7 came out at 64.55%; in data set [1], 17.3%; in data set [2], 6.1%; in the data set on NHDF it was 70.13%.

Consider `O=C1NC(=S)NC(=O)C1=Cc1ccccc1[N+](=O)[O-]`, for which the MIC with Pseudomonas aeruginosa, in the data set on Escherichia coli, in the data set on Bacillus cereus, against Salmonella typhimurium, with Staphylococcus aureus and in the data set on Acinetobacter baumannii was above 200 µM in each case. The molecule also had an MIC against Klebsiella pneumoniae above 200 µM. The Activity was 56.35% with MCF7, -0.23% in data set [1], -2.2% in data set [2] and 81.31% in the data set on NHDF.

For the molecule `CC(NN)=C1C(=O)N(c2ccccc2)C(=S)N(c2ccccc2)C1=O`, the minimal inhibitory concentration (MIC) against Pseudomonas aeruginosa, against Escherichia coli, against Bacillus cereus, against Salmonella typhimurium, in the data set with Staphylococcus aureus and in the data set with Acinetobacter baumannii was above 200 µM throughout. In the data set with Klebsiella pneumoniae, this molecule yielded an MIC above 200 µM. The Activity in the data set on MCF7 is 99.93%; in [1], 41.9%; in [2], 31.3%; with NHDF, 86.68%.
